Publication PMC2882596 (Journal of the American Chemical Society, 2010)

Legend:
Bacillus subtilus 168 = test: MIC, serial dilution liquid culture, overnight in 96-well plates; assay type: cell-based, Bacillus subtilis; conditions: wild type scaffold variants, equivalent potency
Staph aureus strains = test: Antibiotic potency of wild type thiocillin variants; assay type: cell-based, Staphylococcus aureus; conditions: wild type scaffold variants, equivalent potency

Row | Substance | antibiotic potency against B subtilis (Bacillus subtilus 168) | antibiotic potency against Staph aureus strains (Staph aureus strains)
1 | Micrococcin P1 | submicromolar | submicromolar
2 | Micrococcin P2 | submicromolar | submicromolar
3 | Thiocillin I | submicromolar | submicromolar
4 | YM-266183 | submicromolar | submicromolar
